Five molecules from patent US11993594B2, “IRAK inhibitors and method for making and using” (Rigel Pharmaceuticals, Inc., priority 2016, dated 2024) can be followed below.

Where a name gives a salt, the structure may show the parent alone. Read-outs that look alike come from different tables or passages of the source.

In experiment [1] the test system is LPS Induced IL23p19 in THP-1 Cells. Kind of experiment: LPS Induced IL23p19 in THP-1 Cells (with IFNγ Primed) Assay. The note with it: THP-1 cells primed with IFNγ 50 ng/mL, LPS 1 ug/mL, 18 hours, 10 pt, read-out: IL23-p19 ELISA, THP1-IFNγ, LPS, 10 pt EC50. Type of experiment: cell-based, human. In short, it runs like this:
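THP-1 cells (50K/well) are primed with IFNγ at 50 ng/mL for about 18 h. They are then pre-treated with compound for 1 h and stimulated with LPS at 1 ug/mL final for 18 h at 37 °C. Secreted IL-23p19 is measured by chemiluminescent sandwich ELISA and EC50 is derived by curve fitting, with Cell Titer Glo as a viability counter-screen.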

Experiment [2] has as its system LPS induced IL-23 (p19/p40) in DC cells. Kind of experiment: IL23-p19 ELISA, dendritic (DC) cells differentiated from human PBMC, LPS stimulated. Type of experiment: cell-based. To be noted: LPS 1 μg/ml, 18 hours, 10 pt. In short, it runs like this:
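Human PBMC-derived dendritic cells (7 days GM-CSF 100 ng/ml plus IL-4 20 ng/ml, then primed 24 h with IFNγ 50 ng/ml) pre-incubated 1 h with compound, then stimulated 18 h at 37 °C with LPS 1 μg/ml. Supernatant IL-23 measured by sandwich chemiluminescent ELISA (anti-p19 capture, anti-p40 detection); cytotoxicity by CellTiter-Glo.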

`O=C(Nc1cn([C@H]2C[C@H](N3CCOCC3)C2)nc1-c1cnccn1)c1coc(-c2cn[nH]c2)n1` [Compound I-33, N-(1-((1r,3r)-3-morpholinocyclobutyl)-3-(pyrazin-2-yl)-1H-pyrazol-4-yl)-2-(1H-pyrazol-4-yl)oxazole-4-carboxamide]: the EC50 was 59.1 nM in experiment [1] (Homo sapiens, Table 1) and 23.4 nM in experiment [2] (Table 1, IFNγ 50 ng/ml).

In the case of `O=C(Nc1cn([C@H]2C[C@@H](N3CCOCC3)C2)nc1-c1cnccn1)c1coc(-c2cn[nH]c2)n1` [Compound I-34, N-(1-((1s,3s)-3-morpholinocyclobutyl)-3-(pyrazin-2-yl)-1H-pyrazol-4-yl)-2-(1H-pyrazol-4-yl)oxazole-4-carboxamide], the EC50 in experiment [1] (Homo sapiens, Table 1) stood at 7.8 nM; in experiment [2] (Table 1, IFNγ 50 ng/ml), 18.8 nM.

On to `O=C(Nc1cn(C2CCC(N3CCOCC3)CC2)nc1-c1cnccn1)c1coc(-c2c[nH]nc2F)n1` (stereo not shown) [Compound I-35, 2-(3-fluoro-1H-pyrazol-4-yl)-N-(1-((1r,4r)-4-morpholinocyclohexyl)-3-(pyrazin-2-yl)-1H-pyrazol-4-yl)oxazole-4-carboxamide formic acid salt], for which the EC50 amounted to 78 nM in experiment [1] (Homo sapiens, Table 1) and 46.5 nM in experiment [2] (Table 1, IFNγ 50 ng/ml).

As to `O=C(Nc1cn([C@H]2C[C@@H](O)C2)nc1-c1cnccn1)c1coc(-c2cn[nH]c2)n1` [Compound I-38, N-(1-((1s,3s)-3-hydroxycyclobutyl)-3-(pyrazin-2-yl)-1H-pyrazol-4-yl)-2-(1H-pyrazol-4-yl)oxazole-4-carboxamide], the EC50 in experiment [1] (Homo sapiens, Table 1) was found to be 2.6 nM; in experiment [2] (Table 1, IFNγ 50 ng/ml) it was 39.9 nM.

Consider “N-(1-(2-(2-methoxyethoxy)ethyl)-3-(pyridin-2-yl)-1H-pyrazol-4-yl)-2-(1H-pyrazol-4-yl)oxazole-4-carboxamide [Compound I-24]”, for which the EC50 in experiment [1] (Table 3) was determined as 238 nM; in experiment [2] (Table 3, IFNγ 50 ng/ml), 217 nM.
